Experimental data taken from patent publication US7468178B2, “Methods for identifying compounds that modulate vigilance states” (Neurosciences Research Foundation, Inc., priority 1999, dated 2008).

Columns and labels:
Drosophila [1] = system: Drosophila
Method: In order to monitor fly behavior, five-day old virgin female Canton-S Drosophila melanogaster were cultured at 25° C., 50-60% humidity, 12 hr:12 hr light:dark cycle, on brewer's yeast, dark corn syrup and agar food, following procedures modified from J. Bennett and D. L. van Dyke, Dros. […] Continuous, high-resolution measurement of fly behavior was achieved using an ultrasound activity monitoring system shown in FIG. 1A. Briefly, a 44 kHz standing wave was passed across an independent enclosure containing a single fly. An integrated circuit sampled a portion of each wave as a function of the transmit signal and compared it to the output from the receive signal for the same time-window. When the fly moved its mass within the field, it perturbed the standing wave and the resulting difference was counted as a movement. The output was sampled by a PC at 200 Hz, the data were summed in 2-sec bins and stored for later processing. This system detects very small movements in Drosophila's behavioral repertoire, including fine movements of the head, wings, and limbs. To monitor rest-activity patterns in large numbers of flies, an infrared Drosophila Activity Monitoring System was used (Trikinetics; described in M. Hamblen et al., J. Neurogen. 3:249 (1986)). To validate the system, flies were visually monitored for a total of 17.75 h (n=7). The number of times the fly crossed the infrared beam was counted in 5-minute bins. […] Drugs (caffeine or hydroxyzine) dissolved in food were continuously available to flies beginning in the final hour of the light period.

Drosophila [2] = assay: Responsiveness to arousing stimuli (arousal threshold) in flies; format: in vivo, Drosophila melanogaster; conditions: flies given drug in food
Method: In order to determine whether periods of rest are associated with increased arousal thresholds, flies were subjected to vibratory stimuli of increasing intensity (0.05 g, 0.1 g, and 6 g). In these experiments, flies were placed in glass tubes (65 mm in length, 5 mm I.D.) maintained on a hard plastic platform above a Grass speaker. The output of the speaker was controlled via a Beckman signal generator and the resulting vibration of the platform was measured with an accelerometer. Each fly received a stimulus each hour (total of 8 stimuli) of constant intensity. The behavioral state at the time of stimulus delivery and the ensuing response were videotaped and scored off-line.

Compound	motor activity (Drosophila [1]; flies given drug in food from final hour of light period)	amount of rest during the dark period (Drosophila [1]; flies given drug in food from final hour of light period, FIG. 3C, n=36/dose, p<0.0001)	responsiveness to arousing stimuli (Drosophila [2])	rest during the first hour of the dark period (Drosophila [1]; flies given drug in food from final hour of light period, FIG. 3D, n=40/dose)	latency to first dark period rest (Drosophila [1]; flies given drug in food from final hour of light period, FIG. 3E, n=40/dose)	total amount of activity during the light period (Drosophila [1]; in vivo)
Cn1c(=O)c2c(ncn2C)n(C)c1=O [caffeine]	increased	decreased in a dose-dependent fashion	–	–	–	–
OCCOCCN1CCN(C(c2ccccc2)c2ccc(Cl)cc2)CC1 (stereo not drawn) [hydroxyzine]	–	–	preserved	increased in a dose-dependent manner	decreased	unchanged
